According to the Kinase Knowledgebase extract (Sharma et al. 2016):

biological target: PIK3CG (human) (UniProt P48736); experiment: Inhibition of PIK3CG Kinase Activity
Sequence (P48736 whole entry, looked up): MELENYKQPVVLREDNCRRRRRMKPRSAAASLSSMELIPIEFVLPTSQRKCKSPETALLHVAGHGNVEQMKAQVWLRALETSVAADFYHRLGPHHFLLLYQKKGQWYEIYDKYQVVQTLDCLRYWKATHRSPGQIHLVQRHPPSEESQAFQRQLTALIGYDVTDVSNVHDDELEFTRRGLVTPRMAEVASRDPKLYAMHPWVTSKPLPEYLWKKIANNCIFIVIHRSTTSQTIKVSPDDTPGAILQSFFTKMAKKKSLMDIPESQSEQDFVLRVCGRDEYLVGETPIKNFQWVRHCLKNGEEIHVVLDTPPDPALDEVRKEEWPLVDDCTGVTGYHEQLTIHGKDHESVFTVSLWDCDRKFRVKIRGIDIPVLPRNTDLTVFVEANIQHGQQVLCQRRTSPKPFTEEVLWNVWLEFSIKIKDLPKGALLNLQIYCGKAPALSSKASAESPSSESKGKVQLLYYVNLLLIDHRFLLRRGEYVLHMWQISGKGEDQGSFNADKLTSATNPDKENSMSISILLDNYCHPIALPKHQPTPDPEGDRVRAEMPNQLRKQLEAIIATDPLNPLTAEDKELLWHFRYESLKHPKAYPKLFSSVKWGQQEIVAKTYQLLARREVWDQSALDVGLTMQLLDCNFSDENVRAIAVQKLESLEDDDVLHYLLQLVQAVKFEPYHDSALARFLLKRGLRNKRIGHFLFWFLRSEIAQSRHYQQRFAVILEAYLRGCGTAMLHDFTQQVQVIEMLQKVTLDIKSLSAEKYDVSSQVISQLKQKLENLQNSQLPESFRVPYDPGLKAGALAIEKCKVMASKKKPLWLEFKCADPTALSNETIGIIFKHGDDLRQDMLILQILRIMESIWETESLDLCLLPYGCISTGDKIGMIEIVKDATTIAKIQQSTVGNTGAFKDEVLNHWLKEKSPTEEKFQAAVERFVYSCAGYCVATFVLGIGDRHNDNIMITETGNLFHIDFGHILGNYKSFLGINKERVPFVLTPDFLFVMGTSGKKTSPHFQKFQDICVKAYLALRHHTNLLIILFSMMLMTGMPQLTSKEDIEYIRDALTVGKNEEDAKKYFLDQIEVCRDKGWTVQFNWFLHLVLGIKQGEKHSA

IC50, < 800 nM:
O=C(NCc1cccc(C(=O)NC2CCCCC2)c1)Nc1nc2c(s1)-c1c(cnn1-c1ccccc1Cl)C2, O=C(Nc1nc2c(s1)-c1c(cnn1-c1ccccc1Cl)C2)N1CCC(N2CCNC2=O)CC1, CCc1cnc(CCNC(=O)Nc2nc3c(s2)-c2c(cnn2-c2ccccc2Cl)C3)o1, CC(C)(C)CNC(=O)Nc1nc2c(s1)-c1c(cnn1-c1ccccc1Cl)C2, O=C(Nc1nc2c(s1)-c1c(cnn1-c1ccccc1Cl)C2)N1CCC(N2Cc3ccccc3NC2=O)C1 (stereo not given), CC(C)(C)OC(=O)Nc1cccc(CNC(=O)Nc2nc3c(s2)-c2c(cnn2-c2ccccc2Cl)C3)c1, CC(NC(=O)Nc1nc2c(s1)-c1c(cnn1-c1ccccc1Cl)C2)c1cccc(NC(=O)OC(C)(C)C)c1 (stereo not given), N#Cc1ccc(CNC(=O)Nc2nc3c(s2)-c2c(cnn2-c2ccccc2C(F)(F)F)C3)s1, CCn1cnc(CCNC(=O)Nc2nc3c(s2)-c2c(cnn2-c2ccccc2Cl)C3)c1, Cn1ccc(CNC(=O)Nc2nc3c(s2)-c2c(cnn2-c2ccccc2C(F)(F)F)C3)n1, CN1CCC(CNC(=O)Nc2nc3c(s2)-c2c(cnn2-c2ccccc2Cl)C3)CC1, CC1CC(c2ccc(O)cc2)CN1C(=O)Nc1nc2c(s1)-c1c(cnn1-c1ccccc1Cl)C2 (stereo not given), CC(C)(C)OC(=O)N[C@H]1CC[C@H](CNC(=O)Nc2nc3c(s2)-c2c(cnn2-c2ccccc2Cl)C3)CC1, O=C(NCc1cc(C2CC2)n[nH]1)Nc1nc2c(s1)-c1c(cnn1-c1ccccc1Br)C2, Cn1cc(CCNC(=O)Nc2nc3c(s2)-c2c(cnn2-c2ccccc2C(F)(F)F)C3)cn1, CC(C)(C)OC(=O)N1CCC[C@H]1CNC(=O)Nc1nc2c(s1)-c1c(cnn1-c1ccccc1C(F)(F)F)C2, CCc1cnc(CCNC(=O)Nc2nc3c(s2)-c2c(cnn2-c2ccccc2C(F)(F)F)C3)o1, O=C(NCCc1cn[nH]c1)Nc1nc2c(s1)-c1c(cnn1-c1ccccc1Cl)C2, CCCCNC(=O)Nc1nc2c(s1)-c1c(cnn1-c1cccc(F)c1C(F)(F)F)C2, O=C(NCc1ccccc1)Nc1nc2c(s1)-c1c(cnn1-c1ccccc1C(F)(F)F)C2, C=CCn1cnc(CCNC(=O)Nc2nc3c(s2)-c2c(cnn2-c2ccccc2C(F)(F)F)C3)c1, CCCNC(=O)Nc1nc2c(s1)-c1c(cnn1-c1ccccc1C(F)(F)F)C2, CCNC(=O)Nc1nc2c(s1)-c1c(cnn1-c1ccccc1Br)C2, CCCCn1nc(CCNC(=O)Nc2nc3c(s2)-c2c(cnn2-c2ccccc2C(F)(F)F)C3)cc1N, CCc1nnc(CCNC(=O)Nc2nc3c(s2)-c2c(cnn2-c2ccccc2C(F)(F)F)C3)o1
